According to paper PMC3753695 (Neuron, 2013):

molecular target: T1, OBP49a (Drosophila melanogaster, UniProt A1Z947); test: surface plasmon resonance; assay type: binding; settings: pH 7.4; 25 °C; HBS-P (10 mM HEPES, 150 mM NaCl, 0.005 % Surfactant P20); dose-dependent
T1 sequence (A1Z947 23-212): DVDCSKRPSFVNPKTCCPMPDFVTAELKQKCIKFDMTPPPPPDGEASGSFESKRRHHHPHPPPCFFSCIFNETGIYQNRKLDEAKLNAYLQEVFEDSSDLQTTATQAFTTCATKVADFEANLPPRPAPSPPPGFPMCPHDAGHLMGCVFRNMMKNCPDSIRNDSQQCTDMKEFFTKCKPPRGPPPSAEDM

Question: For `COc1ccc2cc3[n+](cc2c1OC)CCc1cc2c(cc1-3)OCO2` [berberine], which “surface plasmon resonance (BIAcore 3000, OBP49a on CM5 chip)” value (shortened to “surface plasmon resonance”) is on record?
Answer: berberine, denatonium and quinine bound to OBP49a in a dosedependent manner

Question: `CC[N+](CC)(CC(=O)Nc1c(C)cccc1C)Cc1ccccc1` [denatonium] was tested. Which “surface plasmon resonance” value did it give?
Answer: berberine, denatonium and quinine bound to OBP49a in a dosedependent manner

Question: With `C=C[C@H]1CN2CC[C@H]1C[C@H]2[C@H](O)c1ccnc2ccc(OC)cc12` [quinine] as the compound, how does the “surface plasmon resonance” value read?
Answer: berberine, denatonium and quinine bound to OBP49a in a dosedependent manner
